Key:
Format in all cases: cell-based
[1] = molecular target: T1, SMARCA2 (Homo sapiens, UniProt P51531); test: SMARCA2 Western blot degradation in MV4-11 cells; design: SMARCA2/SMARCA4 protein degradation selectivity in MV4-11 cells; endogenous in cells; host or cells: MV4-11; details: for Dmax: MV4-11, MV4-11 cells, read-out: SMARCA2 MSD MV411 degradation 24 h: average Dmax %; for Dmax / DC50 / SMARCA2 MSD MV411 degradation 24 h: average Dmax %: 24 h; for DC50 / Selectivity in MV411 / SMARCA2 MSD MV411 degradation 24 h: average Dmax %: MV4-11 cells; for DC50: read-out: SMARCA2 MSD MV411 degradation 24 h: Mean external-Abs DC50; for Selectivity in MV411: SMARCA2/4 selectivity
[2] = molecular target: T2, SMARCA4 (Homo sapiens, UniProt P51532); test: SMARCA4 Western blot degradation in MV4-11 cells; details: for Dmax: MV4-11, MV4-11 cells, read-out: SMARCA4 MSD MV411 degradation 24 h: average Dmax %; for Dmax / DC50: 24 h; for DC50 / SMARCA4 MSD MV411 degradation 24 h: average Dmax %: MV4-11 cells; for DC50: read-out: SMARCA4 MSD MV411 degradation 24 h: Mean external-Abs DC50
T2 construct: SMARCA2/SMARCA4 protein degradation selectivity in MV4-11 cells; endogenous in cells; host or cells: MV4-11
How it was run: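 MV4-11 cells (4×10^6/well) treated with compound for 24 h, lysed in RIPA with protease/phosphatase inhibitors, and SMARCA2, SMARCA4 and beta-actin detected by Western blot with LI-COR readout. Values reported as letter-coded DC50, 24 h Dmax % and SMARCA2/4 selectivity fold.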

[3] = molecular target: T1, SMARCA2; test: MSD SMARCA2 degradation in A549 cell line; details: for Dmax: A549, A549 cells; for Dmax / DC50: 24 h; for DC50 / SMARCA2 MSD A549 degradation 24 h: Average Dmax %: A549 cells; for DC50: read-out: SMARCA2 MSD A549 degradation 24 h: Average external-Abs DC50
How it was run: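 A549 cells treated 24 h with compound, 3-fold series from 1000 nM. Lysates captured on MSD plates and SMARCA2 quantified with anti-SMARCA2 and SULFO-TAG secondary antibodies (electrochemiluminescence). DC50 and Dmax (% degradation at 24 h) reported as letter bins.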

T1 sequence (P51531 whole entry): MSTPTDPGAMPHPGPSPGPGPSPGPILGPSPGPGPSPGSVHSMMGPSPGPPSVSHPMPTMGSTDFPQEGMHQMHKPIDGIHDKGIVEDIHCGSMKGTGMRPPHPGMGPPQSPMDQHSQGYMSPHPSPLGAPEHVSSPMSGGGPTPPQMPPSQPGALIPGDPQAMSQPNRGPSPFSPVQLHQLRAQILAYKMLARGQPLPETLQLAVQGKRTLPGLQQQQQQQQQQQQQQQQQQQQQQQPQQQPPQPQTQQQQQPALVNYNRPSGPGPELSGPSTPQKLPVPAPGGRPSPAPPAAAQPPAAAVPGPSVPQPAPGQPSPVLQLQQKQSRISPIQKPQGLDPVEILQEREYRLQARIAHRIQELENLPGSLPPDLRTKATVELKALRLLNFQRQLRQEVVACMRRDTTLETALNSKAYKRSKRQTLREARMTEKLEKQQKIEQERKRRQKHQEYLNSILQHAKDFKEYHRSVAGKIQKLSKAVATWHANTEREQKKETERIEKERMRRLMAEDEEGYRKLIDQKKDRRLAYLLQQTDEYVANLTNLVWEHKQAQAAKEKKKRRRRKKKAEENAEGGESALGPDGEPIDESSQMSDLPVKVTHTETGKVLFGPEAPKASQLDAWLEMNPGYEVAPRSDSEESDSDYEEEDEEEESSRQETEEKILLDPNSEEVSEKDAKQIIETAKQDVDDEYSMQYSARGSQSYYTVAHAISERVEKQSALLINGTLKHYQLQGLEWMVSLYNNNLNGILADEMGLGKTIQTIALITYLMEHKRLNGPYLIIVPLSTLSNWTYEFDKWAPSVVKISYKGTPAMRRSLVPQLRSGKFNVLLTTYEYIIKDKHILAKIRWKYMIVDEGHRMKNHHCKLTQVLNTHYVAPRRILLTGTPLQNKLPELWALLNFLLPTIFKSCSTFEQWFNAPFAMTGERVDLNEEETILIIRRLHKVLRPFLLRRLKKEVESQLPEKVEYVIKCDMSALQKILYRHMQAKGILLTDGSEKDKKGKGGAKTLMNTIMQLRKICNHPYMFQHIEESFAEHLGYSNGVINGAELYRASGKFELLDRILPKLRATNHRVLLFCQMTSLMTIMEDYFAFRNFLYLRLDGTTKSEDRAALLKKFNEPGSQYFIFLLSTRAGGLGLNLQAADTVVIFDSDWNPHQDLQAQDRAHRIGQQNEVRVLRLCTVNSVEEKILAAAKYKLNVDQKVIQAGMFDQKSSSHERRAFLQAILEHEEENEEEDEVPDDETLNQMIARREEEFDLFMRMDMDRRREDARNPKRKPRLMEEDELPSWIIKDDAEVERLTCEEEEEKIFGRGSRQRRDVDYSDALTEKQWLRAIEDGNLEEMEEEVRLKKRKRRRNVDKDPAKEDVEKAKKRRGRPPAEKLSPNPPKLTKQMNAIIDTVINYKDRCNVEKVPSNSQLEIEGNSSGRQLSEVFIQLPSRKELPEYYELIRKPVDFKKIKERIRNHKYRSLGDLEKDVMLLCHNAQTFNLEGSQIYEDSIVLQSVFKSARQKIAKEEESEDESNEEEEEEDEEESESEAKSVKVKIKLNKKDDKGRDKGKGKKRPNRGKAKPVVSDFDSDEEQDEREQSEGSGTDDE
T2 sequence (P51532 whole entry): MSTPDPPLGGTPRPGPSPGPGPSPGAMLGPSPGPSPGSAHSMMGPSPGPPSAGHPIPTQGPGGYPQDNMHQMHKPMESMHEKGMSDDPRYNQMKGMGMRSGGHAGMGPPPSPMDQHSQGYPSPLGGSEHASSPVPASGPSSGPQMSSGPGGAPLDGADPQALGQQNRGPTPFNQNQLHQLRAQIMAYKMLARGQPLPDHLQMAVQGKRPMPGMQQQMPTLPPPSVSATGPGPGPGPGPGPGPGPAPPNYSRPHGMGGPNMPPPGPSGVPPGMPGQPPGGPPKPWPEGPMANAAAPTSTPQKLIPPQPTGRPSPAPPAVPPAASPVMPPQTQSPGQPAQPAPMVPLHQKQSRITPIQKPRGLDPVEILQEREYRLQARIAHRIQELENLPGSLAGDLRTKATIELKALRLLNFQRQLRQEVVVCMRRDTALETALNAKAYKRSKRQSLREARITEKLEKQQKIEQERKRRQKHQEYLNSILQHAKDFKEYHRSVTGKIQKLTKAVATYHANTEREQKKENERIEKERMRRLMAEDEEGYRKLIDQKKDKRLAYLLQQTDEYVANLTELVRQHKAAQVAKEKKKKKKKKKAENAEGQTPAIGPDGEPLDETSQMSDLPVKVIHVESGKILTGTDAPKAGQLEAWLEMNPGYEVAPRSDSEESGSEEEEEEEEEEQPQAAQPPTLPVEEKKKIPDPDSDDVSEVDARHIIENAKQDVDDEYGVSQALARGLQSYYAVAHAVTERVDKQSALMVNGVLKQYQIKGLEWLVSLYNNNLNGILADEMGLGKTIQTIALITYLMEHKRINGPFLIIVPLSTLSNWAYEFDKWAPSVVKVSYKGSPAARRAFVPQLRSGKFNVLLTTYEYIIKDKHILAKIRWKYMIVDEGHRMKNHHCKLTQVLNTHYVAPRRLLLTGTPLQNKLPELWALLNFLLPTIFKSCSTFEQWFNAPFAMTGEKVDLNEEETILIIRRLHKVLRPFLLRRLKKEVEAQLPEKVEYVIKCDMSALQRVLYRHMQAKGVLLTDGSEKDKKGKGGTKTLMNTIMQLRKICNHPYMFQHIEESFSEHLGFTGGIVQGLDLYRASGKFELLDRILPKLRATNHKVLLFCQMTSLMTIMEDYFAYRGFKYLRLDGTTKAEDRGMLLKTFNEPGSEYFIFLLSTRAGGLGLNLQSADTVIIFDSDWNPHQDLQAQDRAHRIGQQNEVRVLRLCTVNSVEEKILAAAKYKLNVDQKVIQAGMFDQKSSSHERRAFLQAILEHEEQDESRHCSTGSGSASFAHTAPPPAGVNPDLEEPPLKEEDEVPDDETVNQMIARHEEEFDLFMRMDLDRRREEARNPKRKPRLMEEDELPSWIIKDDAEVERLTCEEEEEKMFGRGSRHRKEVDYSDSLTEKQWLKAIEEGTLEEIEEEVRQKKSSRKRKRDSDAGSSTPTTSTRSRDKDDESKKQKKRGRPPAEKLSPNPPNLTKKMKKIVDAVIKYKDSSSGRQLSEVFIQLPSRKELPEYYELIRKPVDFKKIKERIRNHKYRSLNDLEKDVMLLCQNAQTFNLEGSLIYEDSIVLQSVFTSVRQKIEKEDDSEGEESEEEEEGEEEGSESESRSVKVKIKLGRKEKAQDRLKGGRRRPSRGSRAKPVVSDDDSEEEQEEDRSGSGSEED

SMILES: C#Cc1ccc([C@H](C)NC(=O)[C@@H]2C[C@@H](O)CN2C(=O)[C@H](c2cc(OCCN3CCC(N4CCC(N5CCC(CN6CCN7c8cc(-c9ccccc9O)nnc8NC[C@H]7C6)CC5)CC4)CC3)no2)C(C)C)cc1 (single isomer, unassigned) [I-333]
- Dmax [1]: > 90%
- DC50 [1]: < 1 nM
- Selectivity in MV411 [1]: C (C (10-100 fold))
- Dmax [2]: 70 to 90%
- DC50 [2]: 10 to 100 nM
- Dmax [3]: > 90%
- DC50 [3]: 10 to 50 nM

SMILES: C#Cc1ccc([C@H](C)NC(=O)[C@@H]2C[C@@H](O)CN2C(=O)[C@@H](c2cc(OCCN3CCC(N4CCC(N5CCC(CN6CCN7c8cc(-c9ccccc9O)nnc8NC[C@H]7C6)CC5)CC4)CC3)no2)C(C)C)cc1 (single isomer, unassigned) [I-334]
- Dmax [1]: < 50%
- DC50 [1]: > 100 nM
- Selectivity in MV411 [1]: D (D (<10 fold))
- Dmax [2]: < 50%
- DC50 [2]: > 100 nM
- Dmax [3]: 50 to 70%
- DC50 [3]: > 100 nM

SMILES: C#Cc1ccc(CNC(=O)[C@@H]2C[C@@H](O)CN2C(=O)[C@H](NC(=O)N2CC3(CC(N4CCC(c5cnc(N6CCc7[nH]c8nnc(-c9ccccc9O)cc8c7[C@H]6C)nc5)CC4)C3)C2)C(C)(C)CCN2CCOCC2)cc1 (single isomer, unassigned) [I-337]
- Dmax [1]: 70 to 90%
- DC50 [1]: 10 to 100 nM
- Selectivity in MV411 [1]: B (B (>100-500 fold))
- Dmax [2]: < 50%
- DC50 [2]: > 100 nM
- Dmax [3]: > 90%
- DC50 [3]: > 100 nM

SMILES: C#Cc1ccc(CNC(=O)[C@@H]2C[C@@H](O)CN2C(=O)[C@@H](NC(=O)N2CC3(CC(N4CCC(c5cnc(N6CCc7[nH]c8nnc(-c9ccccc9O)cc8c7[C@H]6C)nc5)CC4)C3)C2)C(C)(C)CCN2CCOCC2)cc1 (single isomer, unassigned) [I-338]
- Dmax [1]: < 50%
- DC50 [1]: > 100 nM
- Selectivity in MV411 [1]: C (C (10-100 fold))
- Dmax [2]: < 50%
- DC50 [2]: > 100 nM
- Dmax [3]: < 50%
- DC50 [3]: > 100 nM

SMILES: C#Cc1ccc(CNC(=O)[C@@H]2C[C@@H](O)CN2C(=O)[C@@H](NC(=O)[C@H]2CC3(C2)C[C@H](N2CCC(N4CCC(N5CCN6c7cc(-c8ccccc8O)nnc7NC[C@H]6C5)CC4)CC2)C3)C(C)(C)CCO)cc1 (single isomer, unassigned) [I-364]
- Dmax [1]: 50 to 70%
- DC50 [1]: 10 to 100 nM
- Selectivity in MV411 [1]: B (B (>100-500 fold))
- Dmax [2]: < 50%
- DC50 [2]: > 100 nM
- Dmax [3]: 70 to 90%
- DC50 [3]: > 100 nM

SMILES: C#Cc1ccc(CNC(=O)[C@@H]2C[C@@H](O)CN2C(=O)[C@@H](NC(=O)[C@H]2CC3(C2)C[C@H](N2CCC(N4CCC(N5CCN6c7cc(-c8ccccc8O)nnc7NC[C@H]6C5)CC4)CC2)C3)C(C)(C)CCO)cc1 (single isomer, unassigned) [I-365]
- SMARCA2 MSD MV411 degradation 24 h: average Dmax % [1]: B (B (>70-90% degradation))
- DC50 [1]: 1 to 10 nM
- Selectivity in MV411 [1]: A (A (>500 fold))
- SMARCA4 MSD MV411 degradation 24 h: average Dmax % [2]: D (D (<50% degradation))
- DC50 [2]: > 100 nM
- SMARCA2 MSD A549 degradation 24 h: Average Dmax % [3]: A (A (>90% degradation))
- DC50 [3]: > 100 nM

SMILES: Cc1ncsc1-c1ccc(CNC(=O)[C@@H]2C[C@@H](O)CN2C(=O)C(c2cc(OCCCN3CCC(c4cnc(N5CCN6c7cc(-c8ccccc8O)nnc7NCC6C5)nc4)CC3)no2)C(C)C)cc1 (stereo in doubt) [I-52, (2S,4R)-4-hydroxy-1-(2-(3-(3-(4-(2-((S)-2-(2-hydroxyphenyl)-6a,7,9,10-tetrahydro-5H-pyrazino[1′,2′:4,5]pyrazino[2,3-c]pyridazin-8(6H)-yl)pyrimidin-5-yl)piperidin-1-yl)propoxy)isoxazol-5-yl)-3-methylbutanoyl)-N-(4-(4-methylthiazol-5-yl)benzyl)pyrrolidine-2-carboxamide]
- Dmax [1]: > 90%
- DC50 [1]: < 1 nM
- Selectivity in MV411 [1]: D (D (<10 fold))
- Dmax [2]: > 90%
- DC50 [2]: 1 to 10 nM
- Dmax [3]: > 90%
- DC50 [3]: 10 to 50 nM

SMILES: Cc1ncsc1-c1ccc(CNC(=O)[C@@H]2C[C@@H](O)CN2C(=O)C(c2cc(N3CCC(CCN4CCC(c5cnc(N6CCc7[nH]c8nnc(-c9ccccc9O)cc8c7[C@H]6C)nc5)CC4)CC3)no2)C(C)C)cc1 (stereo partly shown) [I-7]
- Dmax [1]: > 90%
- DC50 [1]: 1 to 10 nM
- Selectivity in MV411 [1]: C (C (10-100 fold))
- Dmax [2]: > 90%
- DC50 [2]: 10 to 100 nM
- Dmax [3]: > 90%
- DC50 [3]: 10 to 50 nM

SMILES: Cc1ncsc1-c1ccc(CNC(=O)[C@@H]2C[C@@H](O)CN2C(=O)C(c2cc(N3CC4(CC(N5CCC(c6cnc(N7CCc8[nH]c9nnc(-c%10ccccc%10O)cc9c8[C@@H]7C)nc6)CC5)C4)C3)no2)C(C)C)cc1 (stereo partly shown) [I-11]
- Dmax [1]: > 90%
- DC50 [1]: 1 to 10 nM
- Selectivity in MV411 [1]: D (D (<10 fold))
- Dmax [2]: > 90%
- DC50 [2]: 10 to 100 nM
- Dmax [3]: > 90%
- DC50 [3]: 10 to 50 nM

SMILES: Cc1ncsc1-c1ccc(CNC(=O)[C@@H]2C[C@@H](O)CN2C(=O)C(c2cc(N3CCC4(CC3)CC(N3CCC(c5cnc(N6CCc7[nH]c8nnc(-c9ccccc9O)cc8c7[C@H]6C)nc5)CC3)C4)no2)C(C)C)cc1 (stereo partly shown) [I-13]
- Dmax [1]: > 90%
- DC50 [1]: 1 to 10 nM
- Selectivity in MV411 [1]: C (C (10-100 fold))
- Dmax [2]: > 90%
- DC50 [2]: 10 to 100 nM
- Dmax [3]: > 90%
- DC50 [3]: 10 to 50 nM

SMILES: Cc1ncsc1-c1ccc(CNC(=O)[C@@H]2C[C@@H](O)CN2C(=O)[C@@H](NC(=O)[C@H]2CC3(C2)C[C@H](N2CCN(c4cnc(N5CCN6c7cc(-c8ccccc8O)nnc7NC[C@H]6C5)nc4)CC2)C3)C(C)(C)C)cc1 (stereo partly shown) [I-18]
- SMARCA2 MSD MV411 degradation 24 h: average Dmax % [1]: D (D (<50% degradation))
- DC50 [1]: 10 to 100 nM
- Selectivity in MV411 [1]: C (C (10-100 fold))
- Dmax [2]: < 50%
- DC50 [2]: 10 to 100 nM
- SMARCA2 MSD A549 degradation 24 h: Average Dmax % [3]: D (D (<50% degradation))

SMILES: Cc1ncsc1-c1ccc(CNC(=O)[C@@H]2C[C@@H](O)CN2C(=O)[C@@H](NC(=O)[C@H]2CC3(C2)C[C@H](N2CCN(c4cnc(N5CCN6c7cc(-c8ccccc8O)nnc7NC[C@H]6C5)nc4)CC2)C3)C(C)(C)C)cc1 (stereo partly shown) [I-19]
- SMARCA2 MSD MV411 degradation 24 h: average Dmax % [1]: A (A (>90% degradation))
- DC50 [1]: 1 to 10 nM
- Selectivity in MV411 [1]: C (C (10-100 fold))
- SMARCA4 MSD MV411 degradation 24 h: average Dmax % [2]: B (B (>70-90% degradation))
- DC50 [2]: 10 to 100 nM
- SMARCA2 MSD A549 degradation 24 h: Average Dmax % [3]: A (A (>90% degradation))
- DC50 [3]: 10 to 50 nM

SMILES: Cc1ncsc1-c1ccc(CNC(=O)[C@@H]2C[C@@H](O)CN2C(=O)C(c2cc(OCCCCN3CCC(c4cnc(N5CCc6[nH]c7nnc(-c8ccccc8O)cc7c6[C@H]5C)nc4)CC3)no2)C(C)C)cc1 (stereo partly shown) [I-35]
- Dmax [1]: > 90%
- DC50 [1]: 1 to 10 nM
- Selectivity in MV411 [1]: D (D (<10 fold))
- Dmax [2]: 70 to 90%
- DC50 [2]: 1 to 10 nM
- Dmax [3]: 70 to 90%
- DC50 [3]: 10 to 50 nM

SMILES: Cc1ncsc1-c1ccc(CNC(=O)[C@@H]2C[C@@H](O)CN2C(=O)C(c2cc(OCCN3CCC(N4CCC(c5cnc(N6CCc7[nH]c8nnc(-c9ccccc9O)cc8c7[C@H]6C)nc5)CC4)CC3)no2)C(C)C)cc1 (stereo partly shown) [I-36]
- Dmax [1]: > 90%
- DC50 [1]: 1 to 10 nM
- Selectivity in MV411 [1]: D (D (<10 fold))
- Dmax [2]: > 90%
- DC50 [2]: 1 to 10 nM
- Dmax [3]: > 90%
- DC50 [3]: 10 to 50 nM
